The test system of this assay is Wild-type nematodes. As to the kind of experiment: Nematode lifespan/survival in microfluidic chips. Type of assay: in vivo. The following applies: versus control, FIG. 4. How it is done:
EXAMPLE 8—Animal Studies: A nematode animal model was used to evaluate lifespan/survival and energy/activity. Wild-type nematodes were loaded into microfluidic chips and were fed […] E. coli OP50 in NGM buffer food source. The methods have been previously described. Nematode lifespan was measured by survival at standard 18 days, while nematode activity was measured at an optimum 15 days using a visual score. Dosing of 2:1 taurine to malic acid molar ratio composition (composition #4, Example 1) was made using the methodology described previously was at 200 micrograms/ml/day, with the solid composition being dissolved in the aqueous feed. This is equivalent to a human dose of 5 grams per day for these animals. The 5 gram per day human dose equivalent represents a dose of 3.26 grams of taurine and 1.74 grams of malic acid (2:1 molar ratio). The results were compared with taurine alone (human equivalent dose 3.26 grams), and malic acid alone (1.74 grams malic acid).
Eighteen days is the typical survival time for nematodes. Eighteen days may be considered “old-age” for these animals. […] This unexpected synergistic effect has not been previously observed. […] Specific energy/activity levels of the neamtodes was measured at an optimum 15 days of life (which may be considered “middle-age”).

Each structure is given as a SMILES string.

As for `O=C(O)CC(O)C(=O)O` (centres unmarked) [malic acid], the “nematode survival at 18 days” value (malic acid alone, human equivalent dose 1.74 grams) is “did not improve survival times versus control”.
In the case of `NCCS(=O)(=O)O` [taurine, 2-aminoethanesulfonic acid], the “nematode survival at 18 days” value (taurine alone, human equivalent dose 3.26 grams) was “did not improve survival times versus control”.

For the origin of these results see patent US20250120924A1, “COMPOSITIONS OF TAURINE AND MALIC ACID AND METHODS OF MAKING THE COMPOSITIONS” (NutriScience Innovations LLC, priority 2023, published 2025).
